Experimental data as given in publication PMC6753678, “Fueling Open Innovation for Malaria Transmission-Blocking Drugs: Hundreds of Molecules Targeting Early Parasite Mosquito Stages” (Frontiers in Microbiology, 2019).
pIC50: −log10 of the molar value. Values joined by “and” are separate entries in the source; they are usually repeats but may differ in a detail not shown here. Identical values can stand only once. Like-named read-outs stand apart in the source and are kept apart here.

Columns and labels:
[1] = tested on: P. falciparum female gametocytes; test: P. falciparum female gametogenesis assay (Pf FGAA); details: 1: YES; 0: NO
[2] = tested on: P. berghei ookinete development; test: microbe, parasite or virus in culture; details: Plasmodium berghei
HepG2 cells [3] = test: HepG2 cytotoxicity assay; details: for pIC50: Homo sapiens, HepG2, 48 h, read-out: IC50 HepG2
Method in brief: (§1)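 Here viability after a 48 h compound incubation (37°C, humidified 5% CO2) is measured by fluorescence and expressed as percent inhibition, with doxorubicin at 50 μM and DMSO as the bounding controls.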

HepG2 cells [4] = details: cited from earlier work
[5] = tested on: P. berghei ookinete development
[6] = tested on: P. falciparum male gametocytes; test: P. falciparum Dual Gamete Formation Assay (Pf DGFA), male readout; details: for Pf DGFA Male, Expt 1 / Pf DGFA Male, Expt 2 / Pf DGFA Male, Expt 3 / Pf DGFA Male, Expt 4: 1µM; for % inhibition Pf DGFA (male) 1 μM (±SEM): mean of four experiments
[7] = tested on: P. berghei oocyst intensity in Anopheles stephensi mosquitoes; test: P. berghei standard membrane feeding assay (Pb SMFA); details: for inhibition at 1 µM: read-out: % inhibition Pb SMFA 1 μM (±SEM), inhibition of oocyst intensity at 1 μM
[8] = tested on: 3D7-strain P. falciparum asexual parasites; test: P. falciparum asexual growth inhibition assay (Pf GIA); format: cell-based, Plasmodium falciparum; details: Plasmodium falciparum
Method in brief: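 0.25% parasitemia, 2% Hct, RPMI/HEPES/hypoxanthine/5% Albumax; compound dose response, 72 h, 37°C, 5% CO2, 5% O2, 90% N2. Freeze-thaw, then LDH assay, A650. % inhibition vs chloroquine (50 μM)/DMSO, mean of 3 independent runs.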

[9] = tested on: P. falciparum female gametocytes; test: P. falciparum Dual Gamete Formation Assay (Pf DGFA), female readout; details: for Pf DGFA Female, Expt 1 / Pf DGFA Female, Expt 2 / Pf DGFA Female, Expt 3 / Pf DGFA Female, Expt 4: 1µM; for inhibition at 1 µM: Plasmodium falciparum, read-out: % inhibition Pf DGFA (female) 1 μM (±SEM), 1 μM, mean of four experiments
[10] = tested on: P. falciparum female gametocytes; set-up: method as in Miguel-Blanco et al 2017; details: ref Miguel-Blanco et al 2017, read-out: Pf FGAA IC50, cited from earlier work
HepG2 cytotoxicity assay = details: human, HepG2 cells
Method in brief: as §1

[11] = tested on: P. falciparum late stage (stages IV-V) gametocytes; set-up: method as in Almela et al 2016; details: TCAMS screen comparison; ref Almela et al 2016; read-out: Pf GCT ATP IC50; cited from earlier work
[12] = read-out: % inhibition, Replicate A
[13] = read-out: % inhibition, Replicate B
[14] = read-out: IC50 Pb ODA, dose response, at least triplicate
[15] = 3D7, dose response confirmation, read-out: Pf asexual growth inhibition assays IC50
[16] = 3D7, 72 h, LDH readout, read-out: IC50 Pf Asexual
[17] = read-out: Pb Ookinete development assay IC50 (µM), dose response confirmation

| Compound | inhibition at 1 µM [2, 12] [%] | inhibition at 1 µM [2, 13] [%] | pIC50 [2, 14] | pIC50 (HepG2 cells [3]) | Pf DGFA Male, Expt 1 [6] | Pf DGFA Male, Expt 2 [6] | Pf DGFA Male, Expt 3 [6] | Pf DGFA Male, Expt 4 [6] | % inhibition Pf DGFA (male) 1 μM (±SEM) [6] [%] | inhibition at 1 µM [7] [%] | pIC50 [8, 15] | pIC50 [8, 16] | Pf DGFA Female, Expt 1 [9] | Pf DGFA Female, Expt 2 [9] | Pf DGFA Female, Expt 3 [9] | Pf DGFA Female, Expt 4 [9] | inhibition at 1 µM [9] [%] | IC50 [2, 17] [µM] | IC50 at 48 h (HepG2 cytotoxicity assay) [µM] | further results |
| --- | --- | --- | --- | --- | --- | --- | --- | --- | --- | --- | --- | --- | --- | --- | --- | --- | --- | --- | --- | --- |
| Cn1c(Sc2ncnc3sccc23)nc2ccccc21 [TCMDC-124514] | 109 | 101 | 6.40 | < 4.00 | 96.96 | 90.56 | 99.40 | 95.50 | 95.61 | 9.07 | 6.73 | 6.73 | 99.03 | 87.98 | 99.79 | 75.95 | 90.7 | – | – | Is compound selective in assay? Pf FGAA active? [1]: 1 (1: YES); pIC50 ([2]; read-out: Pb ODA IC50, this manuscript): 6.40; Unified cytotox (HepG2 cells [3]; HepG2 values of the three screens unified): 100.00 µM; HepG2 cytoxicity (Pf FGAA screen) (HepG2 cells [4]; HepG2, ref Miguel-Blanco et al 2017): >100 µM; Is compound selective in assay? Pb ODA active? ([5]; 1: YES, 0: NO): 1 (1: YES); pIC50 [5, 14]: < 6.60 and 6.40; inhibition at 1 µM ([6]; Plasmodium falciparum, read-out: % inhibition Pf DGFA (male) 1 μM (±SEM), 1 μM, mean of four experiments): 95.6%; % inhibition Pb SMFA 1 μM (±SEM) ([7]; inhibition of oocyst intensity at 1 μM): 9.1%; % inhibition Pf DGFA (female) 1 μM (±SEM) ([9]; 1 μM, mean of four experiments): 90.69%; pIC50 [10]: 5.90 |
| CC[C@H]1CN2CCc3cc(OC)c(OC)cc3[C@@H]2C[C@@H]1C[C@H]1NCCc2cc(OC)c(OC)cc21 [TCMDC-125531] | 93.2 | 121 | – | – | – | – | – | – | – | – | 7.14 | – | – | – | – | – | – | 0.213 | 1.55 | IC50 ([2]; read-out: Pb ODA IC50 (µM), this manuscript): 0.21 µM; Unified cytotox (HepG2 cells [3]; human): 10.78 µM; HepG2 cytoxicity (HepG2 cells [3]; value reported with the Pb ODA screen, this manuscript): 1.55 µM; pIC50 [11]: 6.46; HepG2 cytoxicity (HepG2 cells [4]; value reported with the Pf FGAA screen, ref Miguel-Blanco et al 2017): 9.77 µM; HepG2 cytoxicity (HepG2 cells [4]; value reported with the Pf GCT ATP screen, ref Almela et al 2016): 21.03 µM; pIC50 ([10]; TCAMS screen comparison): 5.56 |
| NC(=O)c1ccccc1Nc1nc(Nc2cccc(N3CCN(CCO)CC3)c2)ncc1Cl [TCMDC-134114] | 106 | 96.7 | > 7.22 | 4.38 | 100.00 | 99.14 | 99.70 | 100.00 | 99.71 | 97 | 7.66 | 7.67 | 18.27 | -46.13 | -5.85 | -25.02 | -14.7 | 0.056 | 41.7 | IC50 ([2]; read-out: Pb ODA (this manuscript) IC50 (µM), P. berghei ookinete development assay, this manuscript): 0.0558 µM; Pb ODA (this manuscript) HepG2 cytoxicity (HepG2 cells [3]; HepG2 cytotoxicity listed with the Pb ODA data set (this manuscript)): 41.69 µM; Assay tox ratio Pb ODA (red: <10-fold selectivity; green: >10-fold) [5]: 747.08; Is compound selective in assay? Pb ODA active? [5]: 1 (key: 1: YES; 0: NO) |
